Molecules are shown by their SMILES. In brackets after ≈: the same amount, converted by molar mass.

The assay deals with Streptococcus sp. 'group A'. In words: Antibacterial activity against group A streptococcus MGAS2221 after 12 hrs by microscopic count analysis. As to conditions: MGAS2221, 12 h. The assay is classed as functional.

Turning to `O=Cc1cc(Cl)cc(Cl)c1O`, the MIC (usually the smallest concentration in the dilution series that meets the test's criterion for growth inhibition) was found to be 20 µM (≈ 3.82 µg/mL). In other words, the double-digit micromolar range.
The same measure for `O=C1NN=CC1CCC/N=C/c1cc(Cl)cc(Cl)c1O` (configuration not stated): 10 µM (≈ 3.14 µg/mL); for `Oc1c(Cl)cc(Cl)cc1/C=N/CC1CCC(C/N=C/c2cc(Cl)cc(Cl)c2O)CC1` (configuration not stated): 10 µM (≈ 4.88 µg/mL).
Then `OCC/N=C/c1cc(Cl)cc(Cl)c1O`, with 20 µM (≈ 4.68 µg/mL); and `Oc1c(Cl)cc(Cl)cc1/C=N/CC1CCCO1` (configuration not stated), with 20 µM (≈ 5.48 µg/mL).
Regarding `O=C1NN=CC1CCC/N=C/c1cc(Br)ccc1O` (configuration not stated), the lowest concentration to inhibit growth (MIC) was 40 µM (≈ 13 µg/mL).
The compound `Cc1ccc([N+](=O)[O-])c(NC(=O)NC(=O)c2c(Cl)cccc2Cl)c1C` came in with an MIC of 50 µM (≈ 19.1 µg/mL).
